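Following 48 hours of exposure in 96-well plates, responses at five concentrations were used to interpolate endpoints linearly. At the GI50, growth is halved.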 Activity calls are given as the source filed them. Cut-off read from the data, not from the text of the source: active = GI50 up to about 1.1 µM and inactive = higher.
How the values were obtained:
Test in all cases: NCI tumour cell line growth inhibition, 48 h
M14 = test system: M14
SF-268 = test system: SF-268
SK-OV-3 = test system: SK-OV-3
MDA-MB-231 = test system: MDA-MB-231
U-251 = test system: U-251
OVCAR-3 = test system: OVCAR-3
NCI-H23 = test system: NCI-H23
IGROV-1 = test system: IGROV-1
PC-3 = test system: PC-3
SN12C = test system: SN12C
HOP-62 = test system: HOP-62
SK-MEL-28 = test system: SK-MEL-28
SW-620 = test system: SW-620
KM12 = test system: KM12
RXF 393 = test system: RXF 393
A549 = test system: A549
SR = test system: SR
HT-29 = test system: HT-29
RPMI-8226 = test system: RPMI-8226
UACC-257 = test system: UACC-257

| Structure (SMILES) | GI50 (M14) | GI50 (SF-268) | GI50 (SK-OV-3) | GI50 (MDA-MB-231) | GI50 (U-251) | GI50 (OVCAR-3) | GI50 (NCI-H23) | GI50 (IGROV-1) | GI50 (PC-3) | GI50 (SN12C) | GI50 (HOP-62) | GI50 (SK-MEL-28) | GI50 (SW-620) | GI50 (KM12) | GI50 (RXF 393) | GI50 (A549) | GI50 (SR) | GI50 (HT-29) | GI50 (RPMI-8226) | GI50 (UACC-257) |
| --- | --- | --- | --- | --- | --- | --- | --- | --- | --- | --- | --- | --- | --- | --- | --- | --- | --- | --- | --- | --- |
| O=C1C(Cl)=C(N2CCN(C3=C(Cl)C(=O)c4ccccc4C3=O)CC2)C(=O)c2ccccc21 | 1.53 µM (inactive) | 2.62 µM (inactive) | 14.1 µM (inactive) | 1.64 µM (inactive) | 3.13 µM (inactive) | 1.6 µM (inactive) | 1.58 µM (inactive) | 1.91 µM (inactive) | 7.31 µM (inactive) | 1.69 µM (inactive) | 12.4 µM (inactive) | 1.94 µM (inactive) | 1.17 µM (inactive) | 4.81 µM (inactive) | 1.63 µM (inactive) | 12.1 µM (inactive) | 0.179 µM (active) | 2.23 µM (inactive) | 0.436 µM (active) | 1.46 µM (inactive) |
| COc1ccc2c(NCCCCCCNc3c4ccccc4nc4cc(OC)ccc34)c3ccccc3nc2c1 | 0.48 µM (active) | 0.213 µM (active) | 0.245 µM (active) | 0.067 µM (active) | 0.0728 µM (active) | 0.162 µM (active) | 0.104 µM (active) | 0.075 µM (active) | 0.0885 µM (active) | 0.0676 µM (active) | 0.137 µM (active) | 0.342 µM (active) | 0.0448 µM (active) | 0.0776 µM (active) | 0.0834 µM (active) | 0.0716 µM (active) | 0.0185 µM (active) | 0.029 µM (active) | 0.0573 µM (active) | 0.731 µM (active) |
| CC(=O)N1C=Cc2c(c(C)c3c([nH]c4ccccc43)c2C)C1 | 7.28 µM (inactive) | 7.4 µM (inactive) | 13.6 µM (inactive) | 3.2 µM (inactive) | 4.89 µM (inactive) | 1.74 µM (inactive) | 5.92 µM (inactive) | 3.76 µM (inactive) | 4.95 µM (inactive) | 3.8 µM (inactive) | 3.02 µM (inactive) | 15.3 µM (inactive) | 2.51 µM (inactive) | 2.9 µM (inactive) | 16.3 µM (inactive) | 4.54 µM (inactive) | 34.2 µM (inactive) | 4.58 µM (inactive) | 14.7 µM (inactive) | 15.1 µM (inactive) |
| CC(=O)OCCOCCN1CCN(C2=C(Cl)C(=O)c3c(O)ccc(O)c3C2=O)CC1 | 0.458 µM (active) | 1.86 µM (inactive) | 3.66 µM (inactive) | 0.397 µM (active) | 2.13 µM (inactive) | 0.723 µM (active) | 0.684 µM (active) | 1.55 µM (inactive) | 1.51 µM (inactive) | 0.767 µM (active) | 3.04 µM (inactive) | 1.04 µM (active) | 0.179 µM (active) | 2.15 µM (inactive) | 0.69 µM (active) | 2.1 µM (inactive) | 0.0444 µM (active) | 0.796 µM (active) | 0.249 µM (active) | 1.02 µM (active) |
| O=C1Nc2ccccc2/C1=N/Nc1ccc([N+](=O)[O-])cc1 | 30.8 µM (inactive) | 10.4 µM (inactive) | 24.2 µM (inactive) | 24.8 µM (inactive) | 30.3 µM (inactive) | 13.6 µM (inactive) | 21.5 µM (inactive) | 14.6 µM (inactive) | 27.4 µM (inactive) | 22.6 µM (inactive) | 14.6 µM (inactive) | 41.3 µM (inactive) | 33.5 µM (inactive) | 20.2 µM (inactive) | 15 µM (inactive) | 24.4 µM (inactive) | 1.46 µM (inactive) | 61.8 µM (inactive) | 24.8 µM (inactive) | 29.5 µM (inactive) |
| COC(=O)c1cc(C#N)[nH]c1-c1cc(Br)cs1 | 14.3 µM (inactive) | 17.7 µM (inactive) | 13.4 µM (inactive) | 20.2 µM (inactive) | 13.3 µM (inactive) | 4.78 µM (inactive) | 6.67 µM (inactive) | 13.4 µM (inactive) | 12.2 µM (inactive) | 14.9 µM (inactive) | 11.1 µM (inactive) | 14.5 µM (inactive) | 17.7 µM (inactive) | 20.7 µM (inactive) | 5.32 µM (inactive) | 10.5 µM (inactive) | 24.9 µM (inactive) | 14.2 µM (inactive) | 7.55 µM (inactive) | 11.4 µM (inactive) |
| C/C(=N/Nc1nc(C)cc(O)n1)C(=O)O | > 100 µM (inactive) | > 100 µM (inactive) | > 100 µM (inactive) | > 100 µM (inactive) | > 100 µM (inactive) | > 100 µM (inactive) | > 100 µM (inactive) | > 100 µM (inactive) | > 100 µM (inactive) | 19 µM (inactive) | > 100 µM (inactive) | > 100 µM (inactive) | > 100 µM (inactive) | > 100 µM (inactive) | > 100 µM (inactive) | > 100 µM (inactive) | > 100 µM (inactive) | > 100 µM (inactive) | > 100 µM (inactive) | > 100 µM (inactive) |
| CC(C)C(Br)C(=O)NCC(=O)O (stereo not given) | > 100 µM (inactive) | > 100 µM (inactive) | > 100 µM (inactive) | > 100 µM (inactive) | > 100 µM (inactive) | > 100 µM (inactive) | > 100 µM (inactive) | > 100 µM (inactive) | > 100 µM (inactive) | > 100 µM (inactive) | > 100 µM (inactive) | > 100 µM (inactive) | > 100 µM (inactive) | > 100 µM (inactive) | > 100 µM (inactive) | > 100 µM (inactive) | > 100 µM (inactive) | > 100 µM (inactive) | > 100 µM (inactive) | > 100 µM (inactive) |
| CC(=O)NNc1nc(C)c(C(/C=C/c2ccc(NC(C)=O)cc2)=N/NS(=O)(=O)c2ccc(C)cc2)s1 | > 100 µM (inactive) | > 100 µM (inactive) | > 100 µM (inactive) | > 100 µM (inactive) | > 100 µM (inactive) | > 100 µM (inactive) | > 100 µM (inactive) | > 100 µM (inactive) | > 100 µM (inactive) | > 100 µM (inactive) | > 100 µM (inactive) | > 100 µM (inactive) | > 100 µM (inactive) | > 100 µM (inactive) | > 100 µM (inactive) | > 100 µM (inactive) | > 100 µM (inactive) | > 100 µM (inactive) | > 100 µM (inactive) | > 100 µM (inactive) |
| CC1=NOC(=O)/C1=C/c1ccc2c(c1)OCO2 | 35.3 µM (inactive) | 34.8 µM (inactive) | > 100 µM (inactive) | 24.5 µM (inactive) | 18.7 µM (inactive) | 30.2 µM (inactive) | 37.3 µM (inactive) | 25.2 µM (inactive) | 21 µM (inactive) | 25.4 µM (inactive) | 19.2 µM (inactive) | 30.8 µM (inactive) | 21.1 µM (inactive) | 19.1 µM (inactive) | 16 µM (inactive) | 61.8 µM (inactive) | 15.9 µM (inactive) | 24.4 µM (inactive) | 21.8 µM (inactive) | 73.5 µM (inactive) |
| COc1cc(C)c2c(c1C=O)Oc1c(c(C)c(O)c3c1C(O)OC3=O)OC2=O (stereo not given) [STICTIC ACID] | 37.4 µM (inactive) | 21.4 µM (inactive) | 49.5 µM (inactive) | 23.3 µM (inactive) | 33.5 µM (inactive) | 32.5 µM (inactive) | 26.5 µM (inactive) | 23.1 µM (inactive) | 34.4 µM (inactive) | > 100 µM (inactive) | 70.1 µM (inactive) | > 100 µM (inactive) | 57.9 µM (inactive) | 19.6 µM (inactive) | 32.5 µM (inactive) | > 100 µM (inactive) | 16 µM (inactive) | 41.8 µM (inactive) | 16 µM (inactive) | 47.9 µM (inactive) |
| CC(=C(C(N)=O)C(N)=O)C1C=C(c2cccs2)CC(c2ccc(Cl)cc2)=C1O (stereo not given) | 42.5 µM (inactive) | > 100 µM (inactive) | > 100 µM (inactive) | > 100 µM (inactive) | 35.6 µM (inactive) | 22.3 µM (inactive) | > 100 µM (inactive) | 35 µM (inactive) | 9.55 µM (inactive) | 32 µM (inactive) | > 100 µM (inactive) | > 100 µM (inactive) | 82.8 µM (inactive) | 34.7 µM (inactive) | > 100 µM (inactive) | 88.7 µM (inactive) | 31 µM (inactive) | 39.8 µM (inactive) | 20.4 µM (inactive) | 14.5 µM (inactive) |
| COC(=O)NC1=NNC(=O)c2ccccc2N1 | > 100 µM (inactive) | > 100 µM (inactive) | > 100 µM (inactive) | > 100 µM (inactive) | > 100 µM (inactive) | > 100 µM (inactive) | > 100 µM (inactive) | > 100 µM (inactive) | > 100 µM (inactive) | > 100 µM (inactive) | > 100 µM (inactive) | > 100 µM (inactive) | > 100 µM (inactive) | > 100 µM (inactive) | > 100 µM (inactive) | > 100 µM (inactive) | > 100 µM (inactive) | > 100 µM (inactive) | > 100 µM (inactive) | > 100 µM (inactive) |
| CN(NC(=O)c1ccco1)C1=NCCN1 | > 100 µM (inactive) | > 100 µM (inactive) | > 100 µM (inactive) | > 100 µM (inactive) | > 100 µM (inactive) | > 100 µM (inactive) | > 100 µM (inactive) | > 100 µM (inactive) | > 100 µM (inactive) | > 100 µM (inactive) | > 100 µM (inactive) | > 100 µM (inactive) | > 100 µM (inactive) | > 100 µM (inactive) | > 100 µM (inactive) | > 100 µM (inactive) | > 100 µM (inactive) | > 100 µM (inactive) | > 100 µM (inactive) | > 100 µM (inactive) |
